Patent US12655101B2, “Small molecules with antibacterial activity” (NEW MEXICO TECH UNIVERSITY RESEARCH PARK CORPORATION, priority 2021, dated 2026)

What was measured:
Format in all cases: cell-based
A. baumannii ATCC 15151 [1] = assay: Synergy of kanamycin and Compound 25, colony counts
Description: Bacterial cells were prepared using methods described above. 500 μL aliquots of the adjusted bacterial cell suspensions were placed into borosilicate glass tubes, where the cell suspensions were treated with 12.5 μg/mL kanamycin, 1 μM or 2 μM Compound 25, or a combination of 12.5 μg/mL kanamycin plus 1 μM or 2 μM Compound 25. The culture tubes were incubated for 18 hours at 37° C. Colony counts were performed by 10-fold serially diluting the samples into fresh MHB and drip-streaking 10 μL from each dilution series onto MHA. The plates were incubated at 37° C. for 18 hours before the CFU/mL were determined by visual cell counts.
A. baumannii ATCC 15151 was grown from a glycerol stock by placing a small volume of cells onto a MHA plate. The MHA plate was incubated overnight at 37° C. A single colony was subsequently used to inoculate MHB to obtain a bacterial broth suspension. The MHB broth suspension was grown at 37° C. on a rotary shaking incubator (100 rpm) for 12 hours. The bacterial cell concentration was adjusted to ˜5×10^5 CFU/mL in MHB or MHB+40% FBS using OD at 595 nm. 500 μL aliquots of the adjusted bacterial cell suspensions were placed into borosilicate glass tubes. Cell suspensions were treated with 6 μg/mL or 12.5 μg/mL kanamycin, 1 μM, 2 μM, or 10 μM Compound 25, or a combination of 6 μg/mL or 12.5 μg/mL […] plus 1 μM, 2 μM, or 10 μM Compound 25. The culture tubes were incubated for 18 hours at 37° C. Colony counts were determined by 10-fold serially diluting the samples into fresh MHB and drip-streaking 10 μL from each dilution series onto MHA. The plates were incubated at 37° C. for 18 hours before the CFU/mL were determined by visual cell counts.

[2] = tested on: A. baumannii ATCC BAA-1797; assay: Synergy of gentamicin and Compound 25, colony counts; settings: 18 hours
Description: Cells were cultured using methods described above. 500 μL of the adjusted bacterial cell suspensions were placed into borosilicate glass tubes, where the cell suspensions were treated with 100 μg/mL gentamicin, 2 μM Compound 25, or a combination of 100 μg/mL gentamicin plus 2 μM Compound 25. The culture tubes were incubated for 18 hours at 37° C. Colony counts were performed by 10-fold serially diluting the samples into fresh MHB and drip-streaking 10 μL from each dilution series onto MHA. The plates were incubated at 37° C. for 18 hours before the CFU/mL were determined by visual cell counts.
500 μL aliquots of the adjusted bacterial cell suspensions were placed into borosilicate glass tubes, where the cell suspensions were treated with 50 μg/mL gentamicin, 2 μM Compound 25, or a combination of 50 μg/mL gentamicin plus 2 μM Compound 25. The culture tubes were incubated for 18 hours at 37° C.

A. baumannii ATCC 15151 [3] = assay: Filamentation with ciprofloxacin and Compound 25 on A. baumannii; settings: for cell morphology and growth: 18 hours
Description: A. baumannii ATCC 15151: […] The culture tubes were incubated for 18 hours at 37° C. After 18 hours incubation, took 3 μL of cells from each well and plated on microscope slide to observe the following: […]

[4] = tested on: A. baumannii ATCC BAA-1797 in a culture of HeLa cells; assay: Selective killing of A. baumannii in a culture of HeLa cells; settings: 60 μM Compound 26
Description: In a separate experiment, the ability of […] to selectively kill A. baumannii ATCC BAA-1797 in a culture of HeLa cells in 40% FBS was studied. Cells were trypsinized, counted (cells/mL) using a hemocytometer, and plated (2×10^5 HeLa cells/100 μL) in tissue culture-treated 24-well plate in DMEM+1% penicillin/streptomycin (P/S)+10% FBS. Cells were adhered overnight at 37° C. in a humidified incubator with 5% CO2. Media was replaced the following day with DMEM+40% or 50% FBS. Selected wells were treated with 60 μM Compound 26, which included HeLa only and HeLa plus 10,000 A. baumannii ATCC BAA-1797—that had been previously grown in MHB for 12 hours in 37° C.—in the appropriate wells. Cells were incubated further for 18 hours at 37° C. 20% v/v MTT reagent (5 mg/mL stock) was added, and the samples were incubated for 10 minutes to observe viable bacteria. Plates were counted after a visual viability assessment.
Cells were trypsinized, counted (cells/mL) using a hemocytometer, and plated (2×10^5 HeLa cells/100 μL) in tissue culture-treated 24-well plate in DMEM+1% penicillin/streptomycin (P/S)+10% FBS. Cells were adhered overnight at 37° C. in a humidified incubator with 5% CO2. Media was replaced the following day with DMEM+40% or 50% FBS. […] Plates were counted after visual viability assessment.

E. coli pUC18 = assay: Nitrocefin β-lactamase assay (outer membrane disruption); settings: 10 μM melittin; 10 μg/mL PME; 6, 12, 24 μM Compound 25 and 26; 100 μM Compound 27; 50 μM Compound 15; 30 minutes
Description: E. coli pUC18 was grown from a glycerol stock by placing a small volume of cells onto a MHA plate. The MHA plate was incubated overnight at 37° C. A single colony was subsequently used to inoculate MHB+100 μg/mL ampicillin to obtain a bacterial broth suspension. The MHB broth suspension was grown at 37° C. on a rotary shaking incubator (100 rpm) for 12 hours. The cells were washed 3× by centrifuging and washing with 1 mL medium 200. The washed bacterial cell concentration was adjusted to ˜1×10^7 CFU/mL in medium 200 using OD at 595 nm. The cells were treated cells with 10 μM melittin; 6, 12, 24 μM Compound 25; 6 μM, 12 μM, 24 μM Compound 26; 100 μM Compound 27; 50 μM Compound 15; and 10 μg/mL PME. The cells were incubated at 37° C. for 30 minutes; added 50 μM nitrocefin and incubated 10 minutes at 37° C.
pUC18 E. coli carry an ampicillin resistance gene and produce β-lactamase.

[5] = […] Compound 25+50 ng/mL ciprofloxacin

## Brc1ccc(N/N=C/c2c[nH]c3cccc(OCc4ccccc4)c23)cc1.Cl [Compound 25, (E)-2-((4-(benzyloxy)-1H-indol-3-yl)methylene)-1-(4-bromophenyl)hydrazin-1-ium chloride]
A. baumannii ATCC 15151 [1]; 12.5 μg/mL kanamycin+1 μM Compound 25, 18 hours
  synergy, logs of kill: 2.5 logs of kill
A. baumannii ATCC 15151 [1]; 12.5 μg/mL kanamycin+2 μM Compound 25, 18 hours
  synergy, full cell death: 9 orders of magnitude
A. baumannii ATCC 15151 [1]; 40% FBS, 12.5 μg/mL kanamycin+10 μM Compound 25
  synergy, logs of kill: 9 logs of kill
A. baumannii ATCC 15151 [1]; without serum, 6 μg/mL kanamycin+2 μM Compound 25
  synergy, logs of kill: 8 logs of kill
[2]; 50 μg/mL gentamicin+2 μM Compound 25
  synergy, full cell death: 4 orders of magnitude
[2]; 100 μg/mL gentamicin+2 μM Compound 25
  synergy, full cell death: 8 orders of magnitude
A. baumannii ATCC 15151 [3]; [5]
  inhibition of ciprofloxacin-induced filamentation: only slightly inhibited
  cell morphology and growth: elongated in morphology and growth inhibition was observed
A. baumannii ATCC 15151 [3]; single agent: 50 ng/mL ciprofloxacin or […] Compound 25
  cell morphology and growth: morphologically normal and full growth was observed

## Cl.Clc1ccc(N/N=C/c2c[nH]c3cccc(OCc4ccccc4)c23)cc1 [Compound 26, (E)-2-((4-(benzyloxy)-1H-indol-3-yl)methylene)-1-(4-chlorophenyl)hydrazin-1-ium]
[4]; 40% FBS and 50% FBS
  kill of A. baumannii ATCC BAA-1797 in HeLa co-culture: 4 logs
[4]; 18 hours, 40% or 50% FBS
  selective eradication of A. baumannii from HeLa cells: selectively eradicated A. baumannii ATCC BAA-1797 from HeLa cells, leaving HeLa cells unharmed

## Cl.Fc1ccc(N/N=C/c2c[nH]c3cccc(OCc4ccccc4)c23)cc1 [Compound 27, (E)-2-((4-(benzyloxy)-1H-indol-3-yl)methylene)-1-(4-fluorophenyl)hydrazin-1-ium]
E. coli pUC18
  outer membrane disruption (β-lactamase leakage, nitrocefin colour): caused outer membrane disruption
